# Test: Comparison of 4,4-dimethyl-2-cyclohexen-1-one with Yoshixol on all parameters
# From the text: In addition, higher dosage was needed to be obtained qualitatively an identical effect to the above-mentioned effect of Yoshixol. Then, the concentration of 4,4-dimethyl-2-cyclohexen-1-one was required about 30-100 times dosage of Yoshixol on the biological samples, and about 10-50 times dosage of Yoshixol on lower molecular substance and macromolecular substance of non-living samples.
compound,measurement,setting,value
"CC1(C)C=CC(=O)CC1 [4,4-dimethyl-2-cyclohexen-1-one]","control, inhibit and/or block function generated by multi-dimensional structure",all parameters demonstrated by Yoshixol,similarly to Yoshixol
same,concentration required for an effect identical to Yoshixol,on the biological samples,30-100 times dosage of Yoshixol
